# Assay results from patent publication US20240158348A1, “HERBICIDAL CYCLIC AMIDES N-SUBSTITUTED WITH A HALOALKYLSULFONYLANILIDE GROUP” (FMC Corporation, priority 2021, published 2024).
# Tests used:
# [1] = tested on: foxtail, giant (giant foxtail, Setaria faberi); assay: Test A preemergence, giant foxtail; type: in vivo; settings: pre-emergence, 240 h, 0 to 100 scale, 10 days, read-out: Plant response rating, Foxtail, Giant; for pest or weed control at 31 g/ha: 31 g ai/ha; for pest or weed control at 125 g/ha: 125 g ai/ha
# Source text: (§1) Seeds of plant species selected from barnyardgrass (Echinochloa crus-galli), blackgrass (Alopecurus myosuroides), corn (Zea mays), foxtail, giant (giant foxtail, Setaria faberi), goosegrass (Eleusine indica), kochia (Bassia scoparia), oat, wild (wild oat, Avena fatua), pigweed, palmer (palmer amaranth, Amaranthus palmeri), pigweed, redroot (redroot pigweed, Amaranthus retroflexus), ragweed (common ragweed, Ambrosia artemisiifolia), ryegrass, Italian (Italian ryegrass, Lolium multiflorum), soybean (Glycine max), and wheat (Triticum aestivum) were planted into a blend of loam soil and sand and treated preemergence with a directed soil spray using test chemicals formulated in a non-phytotoxic solvent mixture which included a surfactant.
# (§2) At the same time, plants selected from these crop and weed species and also galium (catchweed bedstraw, Galium aparine) and horseweed (Erigeron canadensis) were planted in pots containing the same blend of loam soil and sand and treated with postemergence applications of test chemicals formulated in the same manner. Plants ranged in height from 2 to 10 cm and were in the one- to two-leaf stage for the postemergence treatment. Treated plants and untreated controls were maintained in a greenhouse for 10 days, after which time all treated plants were compared to untreated controls and visually evaluated for injury. Plant response ratings, summarized in Table A, are based on a 0 to 100 scale where 0 is no effect and 100 is complete control. A dash (-) response means no test result.
# [2] = tested on: foxtail, giant (giant foxtail, Setaria faberi); assay: Test A postemergence, giant foxtail; type: in vivo; settings: post-emergence, 240 h, 0 to 100 scale, 10 days, read-out: Plant response rating, Foxtail, Giant; for pest or weed control at 31 g/ha: 31 g ai/ha; for pest or weed control at 125 g/ha: 125 g ai/ha
# Source text: as §1, §2
# [3] = tested on: kochia (Bassia scoparia); assay: Test A postemergence, kochia; type: in vivo; settings: post-emergence, 240 h, 0 to 100 scale, 10 days, read-out: Plant response rating, Kochia; for pest or weed control at 31 g/ha: 31 g ai/ha; for pest or weed control at 125 g/ha: 125 g ai/ha
# Source text: as §1, §2
# [4] = tested on: blackgrass (Alopecurus myosuroides); assay: Test A preemergence, blackgrass; type: in vivo; settings: 0 to 100 scale, 10 days
# Source text: as §1, §2
# [5] = tested on: pigweed, palmer (palmer amaranth, Amaranthus palmeri); assay: Test A postemergence, palmer amaranth; type: in vivo; settings: 0 to 100 scale, 10 days
# Source text: as §1, §2
# [6] = tested on: wheat (Triticum aestivum); assay: Test A preemergence, wheat; type: in vivo; settings: 0 to 100 scale, 10 days
# Source text: as §1, §2
# [7] = tested on: oat, wild (wild oat, Avena fatua); assay: Test A preemergence, wild oat; type: in vivo; settings: 0 to 100 scale, 10 days
# Source text: as §1, §2
# [8] = tested on: horseweed (Erigeron canadensis); assay: Test A postemergence, horseweed; type: in vivo; settings: 0 to 100 scale, 10 days
# Source text: as §1, §2
# [9] = tested on: soybean (Glycine max); assay: Test A preemergence, soybean; type: in vivo; settings: 0 to 100 scale, 10 days
# Source text: as §1, §2
melting point [°C],Compound,pest or weed control at 31 g/ha [1] [%],pest or weed control at 125 g/ha [1] [%],pest or weed control at 31 g/ha [2] [%],pest or weed control at 125 g/ha [2] [%],pest or weed control at 31 g/ha [3] [%],pest or weed control at 125 g/ha [3] [%],"Plant response rating, Blackgrass ([4]; 31 g ai/ha)","Plant response rating, Blackgrass ([4]; 125 g ai/ha)","Plant response rating, Pigweed, Palmer ([5]; 31 g ai/ha)","Plant response rating, Pigweed, Palmer ([5]; 125 g ai/ha)","Plant response rating, Wheat ([6]; 31 g ai/ha)","Plant response rating, Wheat ([6]; 125 g ai/ha)","Plant response rating, Oat, Wild ([7]; 31 g ai/ha)","Plant response rating, Oat, Wild ([7]; 125 g ai/ha)","Plant response rating, Horseweed ([8]; 31 g ai/ha)","Plant response rating, Horseweed ([8]; 125 g ai/ha)","Plant response rating, Soybean ([9]; 31 g ai/ha)","Plant response rating, Soybean ([9]; 125 g ai/ha)"
134 to 137,"C=CCOC1CCN(c2cc(NS(=O)(=O)C(F)(F)F)c(C)cc2C)C1=O (stereo not shown) [Compound 2, N-[2,4-dimethyl-5-[2-oxo-3-(2-propen-1-yloxy)-1-pyrrolidinyl]phenyl]-1,1,1-trifluoromethanesulfonamide]",100,100,30,50,20,60,–,–,–,–,–,–,–,–,–,–,–,–
164 to 167,"C#CCOC1CCN(c2cc(NS(=O)(=O)C(F)(F)F)c(C)cc2C)C1=O (stereo not shown) [Compound 1, N-[2,4-dimethyl-5-[2-oxo-3-(2-propyn-1-yloxy)-1-pyrrolidinyl]phenyl]-1,1,1-trifluoromethanesulfonamide]",90,100,40,60,30,80,–,–,–,–,–,–,–,–,–,–,–,–
166 to 169,"Cc1cc(C)c(N2CCC(OC3CCC3)C2=O)cc1NS(=O)(=O)C(F)(F)F (stereo not shown) [Compound 4, N-[5-[3-(cyclobutyloxy)-2-oxo-1-pyrrolidinyl]-2,4-dimethylphenyl]-1,1,1-trifluoromethanesulfonamide]",100,100,40,80,60,90,20,90,60,90,70,100,80,100,90,100,70,100
171 to 174,"Cc1cc(C)c(N2CCC(OC3CC3)C2=O)cc1NS(=O)(=O)C(F)(F)F (stereo not shown) [Compound 3, N-[5-[3-(cyclopropyloxy)-2-oxo-1-pyrrolidinyl]-2,4-dimethylphenyl]-1,1,1-trifluoromethanesulfonamide]",100,100,70,90,50,100,80,100,40,60,100,100,70,100,70,90,30,80

# More lines, now with the values behind:
Compound,melting point [°C],pest or weed control at 31 g/ha [1] [%],pest or weed control at 125 g/ha [1] [%],pest or weed control at 31 g/ha [2] [%],pest or weed control at 125 g/ha [2] [%],pest or weed control at 31 g/ha [3] [%],pest or weed control at 125 g/ha [3] [%],"Plant response rating, Blackgrass ([4]; 31 g ai/ha)","Plant response rating, Blackgrass ([4]; 125 g ai/ha)","Plant response rating, Pigweed, Palmer ([5]; 31 g ai/ha)","Plant response rating, Pigweed, Palmer ([5]; 125 g ai/ha)","Plant response rating, Wheat ([6]; 31 g ai/ha)","Plant response rating, Wheat ([6]; 125 g ai/ha)","Plant response rating, Oat, Wild ([7]; 31 g ai/ha)","Plant response rating, Oat, Wild ([7]; 125 g ai/ha)","Plant response rating, Horseweed ([8]; 31 g ai/ha)","Plant response rating, Horseweed ([8]; 125 g ai/ha)","Plant response rating, Soybean ([9]; 31 g ai/ha)","Plant response rating, Soybean ([9]; 125 g ai/ha)"
"CCO/N=C1\CCN(c2cc(NS(=O)(=O)C(F)(F)F)c(C)cc2C)C1=O [Compound 12, N-[5-[3-(ethoxyimino)-2-oxo-1-pyrrolidinyl]-2,4-dimethylphenyl]-1,1,1-trifluoromethanesulfonamide]",201 to 204,–,–,–,–,–,–,–,–,–,–,–,–,–,–,–,–,–,–
"Cc1cc(C)c(N(COC(=O)C(C)(C)C)S(=O)(=O)C(F)(F)F)cc1N1CCC(OC2CCC2)C1=O (stereo not shown) [Compound 8, [[5-[3-(cyclobutyloxy)-2-oxo-1-pyrrolidinyl]-2,4-dimethylphenyl][(trifluoromethyl)sulfonyl]amino]methyl 2,2-dimethylpropanoate]",–,90,100,30,80,60,80,30,70,60,90,0,50,0,70,70,90,40,50
"Cc1cc(C)c(N2CCC(OC3CCCC3)C2=O)cc1NS(=O)(=O)C(F)(F)F (stereo not shown) [Compound 6, N-[5-[3-(cyclopentyloxy)-2-oxo-1-pyrrolidinyl]-2,4-dimethylphenyl]-1,1,1-trifluoromethanesulfonamide]",–,100,100,10,60,20,80,50,90,50,60,80,100,70,90,–,–,50,90
C=CCO/N=C1\CCN(c2cc(NS(=O)(=O)C(F)(F)F)c(C)cc2C)C1=O [Compound 11],184 to 187,–,–,–,–,–,–,–,–,–,–,–,–,–,–,–,–,–,–
"C#CCO/N=C1\CCN(c2cc(NS(=O)(=O)C(F)(F)F)c(C)cc2C)C1=O [Compound 13, N-[2,4-dimethyl-5-[2-oxo-3-[(2-propyn-1-yloxy)imino]-1-pyrrolidinyl]phenyl]-1,1,1-trifluoromethanesulfonamide]",175 to 178,–,–,–,–,–,–,–,–,–,–,–,–,–,–,–,–,–,–
"CO/N=C1\CCN(c2cc(NS(=O)(=O)C(F)(F)F)c(C)cc2C)C1=O [Compound 9, 1,1,1-trifluoro-N-[5-[3-(methoxyimino)-2-oxo-1-pyrrolidinyl]-2,4-dimethylphenyl]methanesulfonamide]",226 to 229,–,–,–,–,–,–,–,–,–,–,–,–,–,–,–,–,–,–
"Cc1cc(C)c(N(COC(=O)C(C)(C)C)S(=O)(=O)C(F)(F)F)cc1N1CCC(OC2CC2)C1=O (stereo not shown) [Compound 7, [[5-[3-(cyclopropyloxy)-2-oxo-1-pyrrolidinyl]-2,4-dimethylphenyl][(trifluoromethyl)sulfonyl]amino]methyl 2,2-dimethylpropanoate]",–,90,90,60,90,70,80,30,80,30,60,0,80,20,100,80,90,20,40
"Cc1cc(C)c(N(COC(=O)C(C)(C)C)S(=O)(=O)C(F)(F)F)cc1N1CCC(OC2CCCC2)C1=O (stereo not shown) [Compound 5, [[5-[3-(cyclopentyloxy)-2-oxo-1-pyrrolidinyl]-2,4-dimethylphenyl][(trifluoromethyl)sulfonyl]amino]methyl 2,2-dimethylpropanoate]",–,0,50,0,80,20,70,0,40,20,70,0,20,0,40,–,–,0,20
